What was measured:
AMPA receptors = experiment: Patch-clamp potentiation of kainate-induced trans-membrane currents in freshly isolated cerebellar Purkinje's neurons; assay type: cell-based, rat; conditions: for Potentiation of cainate-induced currents (%) / Potentiation of cainate-induced currents (%): blockade: rat cerebellar Purkinje's neurons; for Potentiation of cainate-induced currents (%): blockade: 10 µM, values are printed as blockade, without minus sign; for Washing returned the amplitude of responses to the control value: washing time after application of the compound
Description: The inventors used determining the potentiating effect of novel compounds on kainate-induced trans-membrane currents in cerebellar Purkinje's neurons of rats for a directed search for compounds capable of potentiating responses of AMPA receptors (and thereby, to cause improvement of memory and cognitive functions).
Experiments on assessing the effect of substances on AMPA receptors were carried out using the patch-clamp method on freshly isolated Purkinje's neurons isolated from cerebellum of rats (aged 12 to 15 days). A modified method was used for isolation. 400 to 600 µm thick cerebellar slices were placed into a thermostatic 10 ml chamber. A solution for isolation had the following composition (in mM): NaCl 150.0, KCl 5.0; CaCl2 2.0, MgSO4×7H2O 2.0, HEPES 10.0, glucose 15.0, pH 7.42. The slices were incubated in this solution for 60 minutes, and thereafter, the solution was replaced by a similar solution comprising pronase (2 mg/ml) and collagenase (1 mg/ml) and incubated for 70 minutes. After washing with the original solution for 20 minutes, the slices were placed into a Petri plate and separated by a mechanic method using a Pasteur pipette. The solutions were continuously blown-through with 100% O2 at temperature 34°C. Purkinje's neurons were placed into a 0.6 ml working chamber. A process solution had the following composition (in mM): NaCl 150.0, KCl 5.0; CaCl2 2.6, MgSO4×7H2O 2.0, HEPES 10.0, glucose 15.0, pH 7.36.
Trans-membrane currents were induced by activation of AMPA receptors by applying agonist solutions of these receptors, i.e. cainic acid (CA) using a fast superfusion method. Cainic acid is an agonist of AMPA receptors and it is used for studying properties of AMPA receptors, since AMPA as such causes a too strong desensitization of the receptors, and it is not used in such experiments. Currents were recorded using borosilicate micro electrodes (resistance 1.5 to […]) filled with a following composition (in mM): KCl 100.0; EGTA 11.0, CaCl2 1.0, MgCl2 1.0, HEPES 10.0, ATP 5.0, pH 7.2.
The instrument EPC-9 (HEKA, Germany) was used for recoding. Currents were recorded on the PC Pentium-4 hard disc using the Pulse software, also purchased from the HEKA company. Results were processed using the Pulsefit software (HEKA).
Applying KK induced trans-membrane inward currents in Purkinje's neurons. Addition of the compounds of formula I to perfusion solution induced increase in amplitude of the currents. This increase was dependent on a compound, on concentration thereof, on time elapsed following commencement of a compound application.

[1] = Acute toxicity (LD50, Litchfield and Wilcoxon), intraperitoneal, 14 days follow-up; conditions: mouse, in vivo, ip; male white outbred mice, intraperitoneally, follow-up 14 days
Description: Acute toxicity of the substances was determined on males of white outbred mice weighing 22 to 26 grams. The substances were administered intraperitoneally as a solution or a suspension in 1% starch solution. Follow-up period was 14 days.

[2] = 0.1 µM, negative values = blockade of the currents
[3] = 1 µM, negative values = blockade of the currents

**Q.** Which “Potentiation of cainate-induced currents (%)” value (AMPA receptors; 0.0001 µM) does the source give for `Cc1nc2ccc(C(=O)N3CC4(C)CN(C(=O)c5ccc6nc(C)c(C)nc6c5)CC(C)(C3)C4=O)cc2nc1C` [Compound 3, 3,7-bis[(2,3-dimethylquinoxalin-6-yl)carbonyl]-1,5-dimethyl-3,7-diazabicyclo[3.3.1]nonan-9-one] here?
**A.** The value was 0.0001 µM - no potentiation.

**Q.** What about the “Potentiation of cainate-induced currents (%)” value (AMPA receptors; 0.001 µM) of the same molecule?
**A.** Its value is 0.001 µM - potentiation by 10 to 15%.

**Q.** What about the “Potentiation of cainate-induced currents (%)” value (AMPA receptors; 0.01 µM) of the same molecule?
**A.** The value was 0.01 µM - potentiation by 20 to 30%,.

**Q.** What about the “Potentiation of cainate-induced currents (%)” value (AMPA receptors; [2]) of the same molecule?
**A.** The value was 0.1 µM - blockade by -20 to -50%.

**Q.** And the “Potentiation of cainate-induced currents (%)” value (AMPA receptors; [3])?
**A.** The value was 1 µM - no potentiation.

**Q.** And the “Potentiation of cainate-induced currents (%): blockade” value (AMPA receptors)?
**A.** Its value is 10 µM - blockade by 20 to 50%.

**Q.** And the LD50 at 14 days [1]?
**A.** The LD50 at 14 days was 90 mg/kg.

**Q.** Which “Potentiation of cainate-induced currents (%)” value (AMPA receptors; 0.00001 µM) does the source give for `CC12CN(C(=O)c3ccc4c(c3)OCO4)CC(C)(CN(C(=O)c3ccc4c(c3)OCO4)C1)C2=O` [Compound 2, 3,7-bis(1,3-benzodioxol-5-ylcarbonyl)-1,5-dimethyl-3,7-diazabicyclo[3.3.1]nonan-9-one] here?
**A.** Its value is 10%.

**Q.** And the “Potentiation of cainate-induced currents (%)” value (AMPA receptors; 0.00001 µM, listed as 2 (XXX2))?
**A.** The value was 0.00001 µM -potentiation by 20 to 40%.

**Q.** And the “Potentiation of cainate-induced currents (%)” value (AMPA receptors; 0.0001 µM)?
**A.** Its value is 50-90%.

**Q.** And the “Potentiation of cainate-induced currents (%)” value (AMPA receptors; 0.0001 µM, listed as 2 (XXX2))?
**A.** The value was 0.0001 µM - potentiation by 50 to 90%,.

**Q.** What about the “Potentiation of cainate-induced currents (%)” value (AMPA receptors; 0.001 µM) of the same molecule?
**A.** Its value is 60-140%.

**Q.** And the “Potentiation of cainate-induced currents (%)” value (AMPA receptors; 0.001 µM, listed as 2 (XXX2))?
**A.** The value was 0.001 µM - potentiation by 60 to 140%.

**Q.** And the “Potentiation of cainate-induced currents (%)” value (AMPA receptors; 0.01 µM)?
**A.** Its value is 0-20%.

**Q.** And the “Potentiation of cainate-induced currents (%)” value (AMPA receptors; 0.01 µM, listed as 2 (XXX2))?
**A.** Its value is 0.01 µM - potentiation by 0 to 20%,.

**Q.** And the “Potentiation of cainate-induced currents (%)” value (AMPA receptors; 0.1 µM, negative values = blockade of the currents, listed as 2 (XXX2))?
**A.** The value was 0.1 µM - blockade by -20 to -40%.

**Q.** And the “Washing returned the amplitude of responses to the control value” (AMPA receptors)?
**A.** The value was 4 to 6 min.

**Q.** And the LD50 at 14 days [1]?
**A.** The LD50 at 14 days was 140 mg/kg.

**Q.** For `CC12CC3CC(C)(C1)CC(N)(C3)C2` [Memantine, reference compound], which “Potentiation of cainate-induced currents (%)” value (AMPA receptors; 30 µM) is on record?
**A.** The value was “potentiation by 0 to 15% at 30 µM”.

**Q.** What about the LD50 at 14 days [1] of the same molecule?
**A.** The LD50 at 14 days was 1000 mg/kg.

**Q.** Which “Potentiation of cainate-induced currents (%)” value (AMPA receptors; 0.0001 µM) does the source give for `CC12CN(C(=O)c3ccc4c(c3)OCCO4)CC(C)(CN(C(=O)c3ccc4c(c3)OCCO4)C1)C2=O` [Compound 1, 3,7-bis(2,3-dihydro-1,4-benzodioxin-6-ylcarbonyl)-1,5-dimethyl-3,7-diazabicyclo[3.3.1]nonan-9-one] here?
**A.** Its value is 0.0001 µM - no potentiation.

**Q.** What about the “Potentiation of cainate-induced currents (%)” value (AMPA receptors; 0.001 µM) of the same molecule?
**A.** The value was 40 to 50%.

**Q.** And the “Potentiation of cainate-induced currents (%)” value (AMPA receptors; 0.001 µM, listed as 1 (XXXI))?
**A.** Its value is 0.001 µM - potentiation by 40 to 50%,.

**Q.** And the “Potentiation of cainate-induced currents (%)” value (AMPA receptors; 0.01 µM)?
**A.** The value was 80%.

**Q.** What about the “Potentiation of cainate-induced currents (%)” value (AMPA receptors; 0.01 µM, listed as 1 (XXXI)) of the same molecule?
**A.** Its value is 0.01 µM - potentiation by 80%.

**Q.** What about the “Potentiation of cainate-induced currents (%)” value (AMPA receptors; [2]) of the same molecule?
**A.** The value was 0%.

**Q.** What about the “Potentiation of cainate-induced currents (%)” value (AMPA receptors; 0.1 µM, negative values = blockade of the currents, listed as 1 (XXXI)) of the same molecule?
**A.** Its value is 0.1 µM - 0%,.

**Q.** And the “Potentiation of cainate-induced currents (%)” value (AMPA receptors; [3])?
**A.** The value was -20 to -40%.

**Q.** What about the “Potentiation of cainate-induced currents (%)” value (AMPA receptors; 1 µM, negative values = blockade of the currents, listed as 1 (XXXI)) of the same molecule?
**A.** Its value is 1 µM - blockade by -20 to -40%.

**Q.** What about the “Washing returned the amplitude of responses to the control value” (AMPA receptors) of the same molecule?
**A.** The value was 3 to 5 min.

**Q.** And the LD50 at 14 days [1]?
**A.** Its LD50 at 14 days is 350 mg/kg.

**Q.** For `COc1ccc(C(=O)N2CC3(C)CN(C(=O)c4ccc(OC)c(Cn5cccn5)c4)CC(C)(C2)C3=O)cc1Cn1cccn1` [Compound 4], which “Potentiation of cainate-induced currents (%)” value (AMPA receptors; 0.001 µM) is on record?
**A.** The value was 0.001 µM - no effect.

**Q.** And the “Potentiation of cainate-induced currents (%)” value (AMPA receptors; 0.01 µM)?
**A.** Its value is 0.01 µM - potentiation by 10 to 30%,.

**Q.** What about the “Potentiation of cainate-induced currents (%)” value (AMPA receptors; [2]) of the same molecule?
**A.** The value was 0.1 µM - blockade by -20 to -40%.

**Q.** What about the “Potentiation of cainate-induced currents (%)” value (AMPA receptors; [3]) of the same molecule?
**A.** The value was 1 µM - 0%.

**Q.** What about the “Potentiation of cainate-induced currents (%): blockade” value (AMPA receptors) of the same molecule?
**A.** Its value is 10 µpM - blockade by 15 to 35%.

**Q.** And the LD50 at 14 days [1]?
**A.** The LD50 at 14 days was 900 mg/kg.
